Results from PubChem BioAssay AID1919003 (Molecular Pharmacology Branch, DTP, NCI, 2023).

Test system: 786-0 complex spheroids with HUVEC/MSC, growth % test/control
Assay: Anticancer human tumor 786-0 cell line growth inhibition [AhR];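 note: compound exposure lasted seven days before the read-out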
Settings: for IC50: curve of first compound; for viability, T/C: stronger effect = lower value
In short: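 Agents were dosed in half-log steps down from roughly clinical Cmax, or from 10 microM where Cmax was unknown, alone and with AhR antagonists. Read-out: percent test/control growth of tumor spheroids containing HUVEC and MSC stromal cells.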

[1] = second compound 0.1 µM, first compound 0.0316 µM
[2] = second compound 0.1 µM, first compound 0.1 µM
[3] = second compound 0.1 µM, first compound 0.316 µM
[4] = second compound 0.1 µM, first compound 1 µM
[5] = second compound 0.1 µM, first compound 3.16 µM
[6] = second compound 0.1 µM, first compound 10 µM
[7] = second compound 0.316 µM, first compound 0.0316 µM
[8] = second compound 0.316 µM, first compound 0.1 µM
[9] = second compound 0.316 µM, first compound 0.316 µM
[10] = second compound 0.316 µM, first compound 1 µM
[11] = second compound 0.316 µM, first compound 3.16 µM
[12] = second compound 0.316 µM, first compound 10 µM
[13] = second compound 1 µM, first compound 0.0316 µM
[14] = second compound 1 µM, first compound 0.1 µM
[15] = second compound 1 µM, first compound 0.316 µM
[16] = second compound 1 µM, first compound 1 µM
[17] = second compound 1 µM, first compound 3.16 µM
[18] = second compound 1 µM, first compound 10 µM
[19] = second compound 3.16 µM, first compound 0.0316 µM
[20] = second compound 3.16 µM, first compound 0.1 µM
[21] = second compound 3.16 µM, first compound 0.316 µM
[22] = second compound 3.16 µM, first compound 1 µM
[23] = second compound 3.16 µM, first compound 3.16 µM
[24] = second compound 3.16 µM, first compound 10 µM
[25] = second compound 10 µM, first compound 0.0316 µM
[26] = second compound 10 µM, first compound 0.1 µM
[27] = second compound 10 µM, first compound 0.316 µM
[28] = second compound 10 µM, first compound 1 µM
[29] = second compound 10 µM, first compound 3.16 µM
[30] = second compound 10 µM, first compound 10 µM

Nc1ccccc1NC(=O)c1ccc(CNC(=O)OCc2cccnc2)cc1 + Cc1ccccc1N=Nc1ccc(NC(=O)c2ccnn2C)c(C)c1 showed an IC50 (second compound 0.1 µM) of 7.06 µM, an IC50 (second compound 0.316 µM) of 7.47 µM and an IC50 (second compound 1 µM) of 7.2 µM. It also gave an IC50 (second compound 3.16 µM) of 6.61 µM, an IC50 (second compound 10 µM) of 5.76 µM and a viability, T/C [1] of 104%. The viability, T/C [2] was 99.1%, the viability, T/C [3] was 120% and the viability, T/C [4] was 103%. The viability, T/C [5] was 94.2%, the viability, T/C [6] was 30.8% and the viability, T/C [7] was 114%. The viability, T/C [8] was 103%, the viability, T/C [9] was 106% and the viability, T/C [10] was 115%. The viability, T/C [11] was 105%, the viability, T/C [12] was 31.1% and the viability, T/C [13] was 105%. For the same molecule, the viability, T/C [14] was 111%, the viability, T/C [15] was 105% and the viability, T/C [16] was 104%. For the same molecule, the viability, T/C [17] was 94.3%, the viability, T/C [18] was 32% and the viability, T/C [19] was 88.1%. The viability, T/C [20] was 90.6%, the viability, T/C [21] was 92.2% and the viability, T/C [22] was 80.8%. The viability, T/C [23] was 91.4%, the viability, T/C [24] was 28.2% and the viability, T/C [25] was 88.5%. For the same molecule, the viability, T/C [26] was 91.7%, the viability, T/C [27] was 99.2% and the viability, T/C [28] was 91.2%. The viability, T/C [29] was 75.8% and the viability, T/C [30] was 26.3%.

O=C(C=Cc1cccc(S(=O)(=O)Nc2ccccc2)c1)NO + Cc1ccccc1N=Nc1ccc(NC(=O)c2ccnn2C)c(C)c1 was tested, and the IC50 (second compound 0.1 µM) was 6.06 µM, the IC50 (second compound 0.316 µM) was 6.08 µM and the IC50 (second compound 1 µM) was 6.3 µM. For the same molecule, the IC50 (second compound 3.16 µM) was 5.7 µM, the IC50 (second compound 10 µM) was 4.61 µM and the viability, T/C [1] was 89.2%. The viability, T/C [2] was 103%, the viability, T/C [3] was 88.4% and the viability, T/C [4] was 94.3%. The viability, T/C [5] was 87.7%, the viability, T/C [6] was 20.9% and the viability, T/C [7] was 100%. For the same molecule, the viability, T/C [8] was 97.1%, the viability, T/C [9] was 101% and the viability, T/C [10] was 101%. For the same molecule, the viability, T/C [11] was 86.4%, the viability, T/C [12] was 22.1% and the viability, T/C [13] was 98.2%. The viability, T/C [14] was 100%, the viability, T/C [15] was 106% and the viability, T/C [16] was 93.5%. For the same molecule, the viability, T/C [17] was 90.7%, the viability, T/C [18] was 22.5% and the viability, T/C [19] was 85%. For the same molecule, the viability, T/C [20] was 91.4%, the viability, T/C [21] was 85.8% and the viability, T/C [22] was 81.9%. For the same molecule, the viability, T/C [23] was 80%, the viability, T/C [24] was 21.4% and the viability, T/C [25] was 93.5%. The viability, T/C [26] was 87.2%, the viability, T/C [27] was 85.9% and the viability, T/C [28] was 85.5%. It also gave a viability, T/C [29] of 67.3% and a viability, T/C [30] of 14.2%.

With O=C(c1cc(Cc2n[nH]c(=O)c3ccccc23)ccc1F)N1CCN(C(=O)C2CC2)CC1 + Cc1ccccc1N=Nc1ccc(NC(=O)c2ccnn2C)c(C)c1 the IC50 (second compound 0.1 µM) was greater than 10 µM, the IC50 (second compound 0.316 µM) was greater than 10 µM and the IC50 (second compound 1 µM) was greater than 10 µM. The IC50 (second compound 3.16 µM) was greater than 10 µM, the IC50 (second compound 10 µM) was greater than 10 µM and the viability, T/C [1] was 101%. It also gave a viability, T/C [2] of 105%, a viability, T/C [3] of 99.8% and a viability, T/C [4] of 104%. The viability, T/C [5] was 97%, the viability, T/C [6] was 104% and the viability, T/C [7] was 97.1%. The viability, T/C [8] was 101%, the viability, T/C [9] was 107% and the viability, T/C [10] was 106%. It also gave a viability, T/C [11] of 107%, a viability, T/C [12] of 101% and a viability, T/C [13] of 100%. The viability, T/C [14] was 101%, the viability, T/C [15] was 104% and the viability, T/C [16] was 97.1%. The viability, T/C [17] was 107%, the viability, T/C [18] was 99.1% and the viability, T/C [19] was 94.6%. It also gave a viability, T/C [20] of 97.9%, a viability, T/C [21] of 99.5% and a viability, T/C [22] of 97.3%. The viability, T/C [23] was 106%, the viability, T/C [24] was 94.4% and the viability, T/C [25] was 98.2%. For the same molecule, the viability, T/C [26] was 93.8%, the viability, T/C [27] was 102% and the viability, T/C [28] was 94.9%. It also gave a viability, T/C [29] of 88.1% and a viability, T/C [30] of 87.5%.
